Experimental data as given in patent US7563567B1, “Use of ECIST microarrays in an integrated method for assessing DNA methylation, gene expression and histone acetylation” (The Curators of the Univeristy of Missouri of Columbia, priority 2002, dated 2009).

Key:
CP70 cells [1] = assay: Semi-quantitative RT-PCR; assay type: cell-based, human; conditions: for HSPA.2 expression (RT-PCR): FIG. 21 row 1, no expression in untreated cells; for expression of eight Group 2 loci (RT-PCR): FIGS. 22A, 22B, unmethylated loci
CP70 cells [2] = assay: Expression microarray analysis (ECIST panel, triple analysis); assay type: cell-based, human; conditions: for number of Group 1 (hypermethylated) loci with increased expression: FIG. 20D; for percent of ECIST loci up-regulated 4-fold or greater / total number of ECISTs up-regulated 4-fold or greater: of 1507 loci, DAC 0.5 μM 4 days, TSA 0.5 μM 12 h
MDA-MB-231 cells [3] = assay: RT-PCR verification of ECIST loci responsive to demethylation; assay type: cell-based, human
BIK gene = conditions: cited from earlier work
MDA-MB-231 cells [4] = assay: ECIST expression microarray, deoxyC-treated vs untreated cells; assay type: cell-based, human
[5] = 0.75 μM, 4 days, among 1,162 ECISTs
[6] = average normalized ratio, 0.75 μM treated vs untreated

## Nc1ncn([C@H]2C[C@H](O)[C@@H](CO)O2)c(=O)n1 [DAC, 5-aza-2′-deoxycytidine]
CP70 cells [1]
  HSPA.2 expression (RT-PCR): increased
  expression of eight Group 2 loci (RT-PCR): Increased expression of some of these loci
CP70 cells [2]
  expression of Group 2a genes (unmethylated promoters): not by DAC alone
  number of Group 1 (hypermethylated) loci with increased expression: 11
  percent of ECIST loci up-regulated 4-fold or greater: 1.9%
  total number of ECISTs up-regulated 4-fold or greater: 29
MDA-MB-231 cells [3]; 0.75 μM treated vs untreated, FIG. 17A
  expression of CYP27B1, HSPA2, TTF-1, FLJ10466 and EST183864 by RT-PCR: reactivated
MDA-MB-231 cells [3]; treated relative to untreated cells, loci not hypermethylated, FIG. 17B
  expression levels of CpG12F10, MP2A3 and MP3D7 by RT-PCR: increased
BIK gene; human lung cancer cell line, after treatment
  time by which BIK expression returned to control levels: ≤ 72 h
BIK gene; human lung cancer cell line
  induction of the apoptosis promoting factor BIK: early induction
MDA-MB-231 cells [4]; 0.75 μM
  number of hypermethylated ECIST loci whose transcripts can be reactivated: 30
  number of hypermethylated ECIST loci whose transcripts could not be reactivated (or up-regulated): 189
  number of loci up-regulated in response to demethylation but not associated with CpG island hypermethylation: 96
MDA-MB-231 cells [4]; [5]
  down-regulated ECIST loci (SAM analysis): No down-regulated loci were identified
  number of statistically significant up-regulated ECIST loci (SAM, false-positive rate 1%): 126
MDA-MB-231 cells [4]; [6]
  Cy5/Cy3 Expression, CpG5B6 (CYP27B1): 2.7
  Cy5/Cy3 Expression, CpG6B6 (dJ631M13.5): 2.6
  Cy5/Cy3 Expression, CpG15E2: 3.3
  Cy5/Cy3 Expression, CpG21G11: 2.9
  Cy5/Cy3 Expression, CpG32H12: 2.6
  Cy5/Cy3 Expression, CpG65A1 (TNS): 4.3
  Cy5/Cy3 Expression, CpG65C10 (TBX4): 4.7
  Cy5/Cy3 Expression, DL2F9 (ERCC-1): 3.8
  Cy5/Cy3 Expression, MP1F6 (LOC84661): 2.1
  Cy5/Cy3 Expression, MP2F1 (H4FJ): 3.2
  Cy5/Cy3 Expression, MP2F10: 3.2
  Cy5/Cy3 Expression, PY1H8 (PSMB4): 2.1
  Cy5/Cy3 Expression, PY2F1 (FLJ10466): 3.2
  Cy5/Cy3 Expression, PY3D3 (EST AI023535): 2.4
  Cy5/Cy3 Expression, PY3D6 (EST BI518683): 2.0
  Cy5/Cy3 Expression, PY3F2 (HSRN04): 2.0
  Cy5/Cy3 Expression, SC2C3 (EST BE502068): 4.9
  Cy5/Cy3 Expression, SC8F2 (RPS16): 2.0
  Cy5/Cy3 Expression, SC12A2 (SAAS): 2.2
  Cy5/Cy3 Expression, SC13D6 (EST183864): 2.1
  Cy5/Cy3 Expression, SC15E7: 4.0
  Cy5/Cy3 Expression, SC15H6 (H2BFR): 2.6
  Cy5/Cy3 Expression, SC19F1 (EST BE838797): 2.7
  Cy5/Cy3 Expression, SC20G3 (HOXD3): 2.3
  Cy5/Cy3 Expression, SC21A8 (U3B2): 3.2
  Cy5/Cy3 Expression, SC21G11 (HSPA2): 5.4
  Cy5/Cy3 Expression, SC40C8 (H2BFG): 2.7
  Cy5/Cy3 Expression, SC77F6 (TTF-1): 3.8
  Cy5/Cy3 Expression, SC87E7 (EST AA365852): 2.4
  Cy5/Cy3 Expression, SC89F2 (HAGE): 14.6

## CC(/C=C/C(=O)NO)=C\[C@@H](C)C(=O)c1ccc(N(C)C)cc1 [TSA, trichostatin A]
CP70 cells [1]
  HSPA.2 expression (RT-PCR): remained unchanged
  expression of eight Group 2 loci (RT-PCR): Increased expression of some of these loci
CP70 cells [2]
  expression of Group 2a genes (unmethylated promoters): increased expression
  number of Group 1 (hypermethylated) loci with increased expression: No significant change in expression
  percent of ECIST loci up-regulated 4-fold or greater: 1.1%
  total number of ECISTs up-regulated 4-fold or greater: 17
BIK gene; Suzuki et al., cell line not stated
  induction of the BIK gene: induced in a methylation-independent manner
